Source: patent US7569547B2, “Inhibiting furin with polybasic peptides” (Board of Supervisors of Louisiana State University and …, priority 2001, dated 2009)

Assays:
PC1 = molecular target: T1, PC1 (Mus musculus, UniProt P63239); assay: biochemical; format: biochemical
T1 construct: made in house
T1 sequence (P63239 111-753): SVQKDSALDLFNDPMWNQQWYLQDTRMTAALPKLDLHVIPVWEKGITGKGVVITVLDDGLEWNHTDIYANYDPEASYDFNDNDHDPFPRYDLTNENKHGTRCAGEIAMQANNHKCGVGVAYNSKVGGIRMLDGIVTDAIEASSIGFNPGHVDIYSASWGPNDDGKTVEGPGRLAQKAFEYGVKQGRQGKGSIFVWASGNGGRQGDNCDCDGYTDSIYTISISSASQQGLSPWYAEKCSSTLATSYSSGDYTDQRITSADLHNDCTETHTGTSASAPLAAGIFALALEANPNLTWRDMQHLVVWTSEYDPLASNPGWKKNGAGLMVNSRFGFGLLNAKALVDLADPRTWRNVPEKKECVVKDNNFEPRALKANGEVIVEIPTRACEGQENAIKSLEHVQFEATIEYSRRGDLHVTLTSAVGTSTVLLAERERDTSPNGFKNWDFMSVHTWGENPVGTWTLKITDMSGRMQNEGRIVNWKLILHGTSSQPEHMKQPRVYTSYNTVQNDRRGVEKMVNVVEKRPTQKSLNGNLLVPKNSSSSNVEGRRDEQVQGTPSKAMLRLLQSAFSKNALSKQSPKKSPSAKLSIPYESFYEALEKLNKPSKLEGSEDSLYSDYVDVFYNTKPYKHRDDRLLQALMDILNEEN
Procedure: The proprotein convertases PC1 and PC2 were prepared by ion exchange chromatography as described in G. Frenette et al., Biochim. Biophys. Acta., vol. 1334, pp. 109-115 (1997).
(§1) Enzyme Assays and Hexapeptide Library Screening. Enzyme assays for PC1 and PC2 were performed at pH 5.0 using pERTKR-MCA (Peptides International Inc., Louisville, Ky.) as described in E. Apletalina et al., J. Biol. Chem., vol. 273, pp. 26589-26595 (1998). The assay for furin was performed using the same substrate at pH 7.0 in 100 mM HEPES, 5 mM CaCl2, 0.1% Brij 35. All assays were performed at 37° C. in a 96 well fluorometer (Labsystems) at an excitation wavelength of 380 nm with emission monitored at a wavelength of 460 nm. The total volume was 50 μL. Unless otherwise stated, the final substrate concentration for all assays was 200 μM. When used in a particular experiment, the inhibitory peptides were pre-incubated with enzyme for 30 min at room temperature prior to addition of substrate. All assays were performed in duplicate or triplicate.

recombinant mouse furin = molecular target: T2, recombinant mouse furin (Mus musculus, UniProt P23188); assay: Furin enzyme assay, hydrolysis of pERTKR-MCA at pH 7.0; format: biochemical; details: for type of inhibition of furin (Lineweaver-Burk plots): furin 30 nM, 0, 20 or 40 μM hexapeptide, polyarginines forty-fold lower
T2 construct: truncated N-terminally to the transmembrane domain at His^711 using PCR; myc (C, cleaved yes); hexa-His (C, cleaved yes); made in house; host or cells: DG44 CHO cells, conditioned medium
T2 sequence (P23188 108-714 limits assumed): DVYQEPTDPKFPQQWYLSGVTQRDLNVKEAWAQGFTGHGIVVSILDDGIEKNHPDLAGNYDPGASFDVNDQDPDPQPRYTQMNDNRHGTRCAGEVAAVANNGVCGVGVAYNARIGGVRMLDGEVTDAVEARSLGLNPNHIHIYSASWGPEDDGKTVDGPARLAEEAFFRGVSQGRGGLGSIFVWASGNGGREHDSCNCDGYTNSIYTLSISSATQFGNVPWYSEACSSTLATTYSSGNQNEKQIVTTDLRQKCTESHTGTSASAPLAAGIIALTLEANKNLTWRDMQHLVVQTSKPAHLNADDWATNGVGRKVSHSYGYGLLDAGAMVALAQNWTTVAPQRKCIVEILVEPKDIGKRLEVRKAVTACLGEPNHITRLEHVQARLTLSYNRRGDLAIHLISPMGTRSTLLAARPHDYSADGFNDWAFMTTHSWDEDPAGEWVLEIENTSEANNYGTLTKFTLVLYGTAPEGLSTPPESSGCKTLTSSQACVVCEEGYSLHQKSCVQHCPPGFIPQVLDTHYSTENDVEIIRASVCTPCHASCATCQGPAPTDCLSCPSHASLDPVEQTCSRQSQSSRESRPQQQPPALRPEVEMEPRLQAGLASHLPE
From the text: Recombinant convertase preparation. The mouse furin clone was a kind gift from K. Nakayama (Fukuoka University School of Medicine, Fukuoka, Japan). The mouse furin cDNA was truncated N-terminally to the transmembrane domain at His^711 using PCR. This PCR product was then subcloned into pcDNA3.1 (−) myc-His (Invitrogen) at the Nhe1 and Xba1 restriction sites. Dihydrofolate-reductase-negative DG44 Chinese Hamster Ovary (CHO) cells (L. Chasin, Columbia University, New York, N.Y.) were transfected using Lipofectin (Life Technologies), and colonies were selected at 37° C. in 5% CO2 in α-MEM (lacking nucleosides) containing 10% well-dialyzed fetal bovine serum (Life Technologies). Conditioned media from colonies were screened using an enzyme assay (see below), and a high-expressing clone was selected. Overexpression of furin was achieved by increasing the methotrexate concentration from 5 nM to 50 μM in five- to ten-fold steps as described in I. Lindberg et al., Methods Neurosci., vol. 23, pp. 94-108 (1995). The amplified lines were tested for increased furin expression by enzyme assay. Once the 50 μM methotrexate level had been reached, cells were split at ratios of 1:6 twice a week. 100 mL of conditioned media (OptiMEM, Life Technologies) containing 100 μg/mL aprotinin (Miles Laboratories, Kankakee, Ill.) was collected from confluent roller bottles every 24 h. The medium was then centrifuged at low speed to remove cells, and the supernatant was stored at −80° C. until use.
Purification of furin: Conditioned medium was thawed, pooled, and diluted 1:3.5 with buffer A (20 mM HEPES, 0.1% Brij 35, 5 mM CaCl2, pH 7.4), and pumped at 40 mL/min through a Sartorius D100 anion exchange membrane. The membrane was washed with 40 mL of buffer A, followed by 40 mL of buffer A containing 50 mM NaCl, and finally by 40 mL of buffer A containing 200 mM NaCl. The fraction eluting with 200 mM NaCl was diluted 1:4 with buffer A and applied to a 1 mL Pharmacia Mono Q HR5/5 anion exchange column at a flow rate of 1 mL/min. Following a 10 mL wash with buffer A, furin was eluted by a linear increase of 0 to 500 mM NaCl in buffer A over 30 mL; and 2 mL fractions were collected. Fractions containing peak activity were pooled, and 200 μL aliquots were subjected to gel permeation chromatography using a Pharmacia Superose 12 column at a flow rate of 0.5 mL/min of buffer A containing 200 mM NaCl. Fractions were assayed for activity as described below; protein content was determined using the Bradford method. All purification steps were performed at 4° C.
as §1

SMILES | Ki (PC1) [µM] | type of inhibition of furin (Lineweaver-Burk plots) (recombinant mouse furin) | Ki (recombinant mouse furin) [µM]
N=C(N)NCCC[C@@H](NC(=O)[C@H](N)CCCN=C(N)N)C(=O)N[C@H](CCCNC(=N)N)C(=O)N[C@H](CCCNC(=N)N)C(=O)N[C@H](CCCNC(=N)N)C(=O)N[C@H](CCCN=C(N)N)C(=O)O [Hexa-D-arginine] | 13 ± 0.25 | strictly competitive-type inhibition | –
N=C(N)NCCC[C@H](NC(=O)[C@H](CCCNC(=N)N)NC(=O)[C@H](CCCNC(=N)N)NC(=O)[C@H](CCCNC(=N)N)NC(=O)[C@H](CCCNC(=N)N)NC(=O)[C@@H](N)CCCNC(=N)N)C(=O)O [Hexa-L-arginine] | 3.9 ± 0.62 | strictly competitive-type inhibition | –
N=C(N)NCCC[C@H](NC(=O)[C@H](CCCNC(=N)N)NC(=O)[C@H](CCCNC(=N)N)NC(=O)[C@H](CCCNC(=N)N)NC(=O)[C@H](CCCNC(=N)N)NC(=O)[C@H](CCCNC(=N)N)NC(=O)[C@H](CCCNC(=N)N)NC(=O)[C@H](CCCNC(=N)N)NC(=O)[C@@H](N)CCCNC(=N)N)C(=O)O [Nona-L-arginine] | 12 ± 2.5 | strictly competitive-type inhibition | 0.042
